Molecular target: T1, PLK1 kinase domain (Homo sapiens, UniProt P53350)
T1 construct: made in house; host or cells: baculovirus-infected T. ni insect cells
Test: Assay for Inhibition of PLK1 (SPA enzyme activity)
Type: biochemical
Conditions: 2 μM ATP, read-out: Ave pIC50 PLK Enzyme Inhibition (converted)
Method: All procedures were performed at 4° C. Cells were lysed in so mM HEPES, 200 mM NaCl, so mM imidazole, 5% glycerol; pH 7.5. The homogenate was centrifuged at 14K rpm in a SLA-1500 rotor for 1 hr and the supernatant filtered through a 1.2 micron filter. The supernatant was loaded onto a Nickel chelating Sepharose (Amersham Pharmacia) column and washed with lysis buffer. Protein was eluted using 20%, 30% and 100% buffer B steps where buffer B is 50 mM HEPES, 200 mM NaCl, 300 mM imidazole, 5% glycerol; pH 7.5. Fractions containing PLK were determined by SDS-PAGE. Fractions containing PLK were diluted five-fold with so mM HEPES, 1 mM DTT, 5% glycerol; pH 7.5, then loaded on an SP Sepharose (Amersham Pharmacia) column. After washing the column with so mM HEPES, 1 mM DTT, 5% glycerol; pH 7.5, PLK was step eluted with so mM HEPES, 1 mM DTT, 500 mM NaCl; 5% glycerol; pH 7.5. PLK was concentrated using a 10 kDa molecular weight cutoff membrane and then loaded onto a Superdex 200 gel filtration (Amersham Pharmacia) column equilibrated in 25 mM HEPES, 1 mM DTT, 500 mM NaCl, 5% glycerol; pH 7.5. Fractions containing PLK were determined by SDS-PAGE. PLK was pooled, aliquoted and stored at −80° C. Samples were quality controlled using mass spectrometry, N-terminal sequencing and amino acid analysis.
B. Enzyme activity+/−inhibitors was determined as follows:
Compounds were added to the plate (1 μl in […]). […] Reaction Mix B is prepared as follows at 4° C.: • Reaction Mix B (Enzyme Mix) • 25 mM HEPES, pH 7.2 • 15 mM MgCl2 • 0.15 mg/ml BSA • 2 mM DTT • 2-10 nM PLK1 kinase domain
Reaction Mix A (20 μl) is added per well. Reaction Mix B (20 μl) is added per well. Incubate 1.5 hrs. at RT. The enzymatic reaction is stopped with 175 μl of SPA/EDTA bead mix (29 mM EDTA, 2.5 mg/ml Streptavidin-coated SPA in Standard Dulbecco's PBS (without Mg^2+ and Ca^2+), 60 μM ATP). Plates are sealed spun (after a 1 hr incubation at RT) at 1,000×g for 7 min or settled overnight, then plates counted in Packard TopCount for 30 seconds/well.

T1 sequence (P53350 21-346): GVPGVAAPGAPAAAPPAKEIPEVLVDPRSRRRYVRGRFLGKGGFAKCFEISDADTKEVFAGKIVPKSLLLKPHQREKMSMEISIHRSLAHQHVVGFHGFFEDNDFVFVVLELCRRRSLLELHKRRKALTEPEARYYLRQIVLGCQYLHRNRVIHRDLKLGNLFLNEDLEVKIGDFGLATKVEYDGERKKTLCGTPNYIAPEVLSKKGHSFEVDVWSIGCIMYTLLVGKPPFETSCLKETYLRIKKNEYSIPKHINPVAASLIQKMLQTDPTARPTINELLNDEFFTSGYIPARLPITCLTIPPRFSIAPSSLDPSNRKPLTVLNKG

Row | SMILES | IC50 [nM]
1 | Cc1ccccc1COc1cc(-n2cnc3ccccc32)sc1C(N)=O [Example 4, 5-(1H-Benzimidazol-1-yl)-3-[(2-methylbenzyl)oxy]-2-thiophenecarboxamide] | < 100
2 | Cc1cccc(COc2cc(-n3cnc4ccccc43)sc2C(N)=O)c1 [Example 13, 5-(1H-Benzimidazol-1-yl)-3-[(3-methylbenzyl)oxy]-2-thiophenecarboxamide] | < 100
3 | COc1cccc(COc2cc(-n3cnc4ccccc43)sc2C(N)=O)c1 [Example 14, 5-(1H-Benzimidazol-1-yl)-3-[(3-methoxybenzyl)oxy]-2-thiophenecarboxamide] | < 100
4 | Cc1ccccc1COc1cc(-n2cnc3cc(O)ccc32)sc1C(=O)O [Example 141, 5-(5-Hydroxy-1H-benzimidazol-1-yl)-3-[(2-methylbenzyl)oxy]-thiophene-2-carboxylic acid] | < 100
5 | COc1cc2ncn(-c3cc(OCc4ccccc4C(F)(F)F)c(C#N)s3)c2cc1OC [Example 146, 5-(5,6-Dimethoxy-1H-benzimidazol-1-yl)-1-{[2-(trifluoromethyl)benzyl]oxy}thiophene-2-carbonitrile] | 100 to 10000

Next, values leading:

Row | IC50 [nM] | SMILES
6 | < 100 | NC(=O)c1sc(-n2cnc3ccccc32)cc1OCc1cccc(Cl)c1 [Example 15, 5-(1H-Benzimidazol-1-yl)-3-[(3-chlorobenzyl)oxy]-2-thiophenecarboxamide]
7 | < 100 | NC(=O)c1sc(-n2cnc3cc(Cl)ccc32)cc1OCc1ccccc1 [Example 84, 3-(Benzyloxy)-5-(5-chloro-1H-benzimidazol-1-yl)thiophene-2-carboxamide]
8 | 100 to 10000 | O=C(NO)c1sc(-n2cnc3ccccc32)cc1OCc1ccccc1 [Example 144, 5-(1H-Benzimidazol-1-yl)-3-(benzyloxy)-N-hydroxythiophene-2-carboxamide]
